Assay results taken from patent US20060009403A1, “Dna demethylase antisense and chemotherapy combination” (Centre National De La Recherche Scientifique (CNRS), priority 2002, published 2006).

System: H1299 tumor grafts (human non-small cell lung tumors)
Test: Growth of H1299 tumor grafts in nude mice after intratumor electrotransfer of antisense plasmid and/or intramuscular bleomycin (Experiments 1 and 2)
Type: in vivo
Conditions: for Number of tumors cured (tumors no longer measurable): cured/total
Procedure: Two series of experiments were carried out in nude mice weighing 18 to 20 g. The mice were implanted on one side with H1299 tumor grafts (human non-small cell lung tumors) of approximately 20 mm^3. The tumors developed, to reach a volume of 20 to 150 mm^3. The mice were sorted as a function of the size of the tumors and were divided up into homogeneous batches reaching tumor volumes of 50 to 80 mm^3 (n=10 to 13). The mice were anesthetized with a mixture of ketamine and xylazine.
A series of tumors was subjected to no treatment.
Five electrotransfers of 50 μg of plasmid in 80 μl of 150 mM NaCl were carried out in the tumors on the days indicated by the arrows. The plasmid solution was injected longitudinally at the periphery of the tumor using a Hamilton syringe. The lateral faces of the tumors were coated with conducting gel and the tumors were placed between 2 flat stainless steel electrodes 0.4 to 0.7 cm apart. Twenty to 30 seconds after the injection, the plasmids were electrotransferred using a commercial (square) electrical pulse generator (Jouan Electropulser PS 15). Each tumor was subjected to 500 V/cm delivered in 8 pulses lasting 20 msec at a frequency of 1 Hertz.
Twenty-five μg of bleomycin/animal in 50 μl of 150 mM NaCl were injected bilaterally into the tibialis cranialis muscle and, 30 minutes later, each tumor was subjected to 1 electrotransfer as explained above.
(§1) Twenty-five μg of bleomycin/animal in 50 μl of 150 mM NaCl were injected bilaterally into the tibialis cranialis muscle and, 30 minutes later, 50 μg of antisense plasmid in 80 μl of 150 mM NaCl were injected and electrotransferred. Four other electrotransfers of 50 μg of antisense plasmid in 80 μl of 150 mM NaCl were subsequently carried out in the tumors on the days indicated by the arrows.
The tumor volumes were measured individually for each tumor using an electronic slide gauge with a digital display, according to the formula (length×width×thickness)/2.
The median of the tumor volumes was reported in the form of a graph, as a function of time.
Five electrotransfers of 80 μl of 150 mM NaCl were carried out in the tumors on the days indicated by the arrows.
as §1, with “Fifty” for “Twenty-five μg of bleomycin/animal in 50”, “later, an electrotransfer of” for “later,”, “was carried out.” for “were injected and electrotransferred.”
Twenty-five μg of bleomycin/animal in 50 μl of 150 mM NaCl were injected bilaterally into the tibialis cranialis muscle and, 30 minutes later, each tumor was injected with 80 μl of 150 mM NaCl and subjected to an electrotransfer. Four other electrotransfers of 80 μl of 150 mM NaCl were subsequently carried out in the tumors on the days indicated by the arrows.
as §1, with “50-μl” for “50 μl”, “in” for “into”, “later, an electrotransfer of” for “later,”, “was carried out.” for “were injected and electrotransferred.”

## bleomycin
Experiment 1
  Delay in growth, treatment versus untreated: 30 days
  Number of tumors cured (tumors no longer measurable): 1/13
Experiment 1 (Table 3)
  D1000, number of days required to reach a tumor volume of 1000 mm^3: D44 days
Experiment 1, H1299 tumors, 25 μg bleomycin i.m. and/or 5 electrotransfers of 50 μg plasmid
  Day 1000 mm^3 (median), number of days to reach 1000 mm^3 of tumor volume: 44.40 days
Experiment 2
  Delay in growth, treatment versus electro/NaCl: 17 days
  Number of tumors cured (tumors no longer measurable): 1/11
Experiment 2 (Table 3)
  D1000, number of days required to reach a tumor volume of 1000 mm^3: D38 days
Experiment 2, H1299 tumors, 25 μg bleomycin i.m. and/or 5 electrotransfers of 50 μg plasmid
  D 1000 mm^3 (median), number of days to reach 1000 mm^3 of tumor volume: 38.00 days
H1299 tumors, summary over Experiments 1 and 2
  Tumor (complete) cure rate: 10%
